This is an account of results in publication PMC7710018, “Restoration of motor learning in a mouse model of Rett syndrome following long-term treatment with a novel small-molecule activator of TrkB” (Disease Models & Mechanisms, 2020).

The test system of one series is TrkB. As to the kind of experiment: Shc adaptor protein recruitment to TrkB in HCEMs (IP/western blot). Type of series: cell-based, human. To be noted: 1 h, compounds 1000 nM, BDNF 0.7 nM. The source says:
Fig. 2. […] Scale bar: 10 μm. […] Scale bar: 10 μm.

A short description of series [1]: Aqueous solubility (Cerep). The note with it: assay maximum 200 µM. Type of series: physicochemical. As for the experimental part: (§1) To evaluate the relative binding specificity of LM22A-4 ([Massa et al., 2010]) and PTX-BD4-3, binding to a broad range of 55 pharmacologically relevant receptors, including numerous neurotransmitter and G-protein coupled receptors was assessed using standard radioligand competition binding assays (ExpressSProfile) performed by Cerep, Inc. (Seattle, WA, USA). In addition, ADME-Tox analysis was performed by Cerep, Inc. All experimental conditions are described on the Cerep website (www.cerep.fr).
(§2) Aqueous Human CYP inhibition (10µM) AMES hERG solubility hepatocyte DNA testing
(§3) (µM) metabolic mutagenesis
(§4) PTX‐BD4‐3 200 >60 negative negative negative
Table S2. Solubility, metabolism and toxicity screens for LM22A-4 and PTX-BD4-3. Standardized assays of solubility, metabolic stability and in vitro toxicity were performed to further evaluate the potential of PTX-BD4-3 as a lead candidate molecule for the treatment of Rett syndrome, and to compare its profile to that of the parent compound LM22A-4. Aqueous solubility of both compounds, which is used as a surrogate measure of absorption, was at or near the assay maximum of 200 µM. The metabolic stability of both compounds at 10 µM was evaluated at 5 different time points in […] and found to be >60 min, indicating favorable stability. […]

Series [2] can be described thus: Brain:plasma partitioning (LC-MS/MS). To be noted: mice; for concentration at 1 h / concentration at 3 h / Kp at 1 h / Kp at 3 h / plasma levels: 50 mg/kg i.p.; for Kp at 1 h / Kp at 3 h: brain/plasma, read-out: brain-to-plasma ratio; for concentration at 1 h / Kp at 1 h / plasma levels: 1 h; for plasma levels: in nM (unit assumed). The class given is in vivo, mouse. The procedure:
Brain and plasma concentrations of LM22A-4, PTX-BD4-3 and atenolol were determined by LC-MS/MS by Absorption Systems (Exton, PA, USA). Male C57BL/6 were dosed intraperitoneally one time with LM22A-4 or PTX-BD4-3 suspended in water at 50 mg/kg (10 ml/kg). Mice were sacrificed at 1 h or 3 h post dose (n=3-4 mice/time point), and brain and plasma samples were collected.
Figure S1. Brain and plasma levels, and brain to plasma ratios for […]
PTX-BD4-3 following IP administration in Wt mice. Brain and plasma levels were determined by LC-MS/MS and used to calculate the brain:plasma ratios at 1 and 3 hours after IP administration of 50 mg/kg LM22A-4 (black), or PTX- […]
in mice (n=11-12 mice/time point; data shown are mean + s.e.m.)
*p<0.05 compared to LM22A-4 at same time point; one-tailed Student’s t-test. […]

Series [3] can be described thus: Metabolic stability (Cerep). The class given is in vitro ADME, human. The note with it: 10 µM, 5 time points. As for the experimental part: as §1, §2, §3, §4
Table S2. Solubility, metabolism and toxicity screens for LM22A-4 […]
and PTX-BD4-3. […]
(also on this page, place not known: Disease Models & Mechanisms: doi:10.1242/dmm.044685: Supplementary information Disease Models & Mechanisms • Supplementary information)

The test system of the next series is 3T3-TrkB cells. As to the kind of experiment: NIH-3T3 cell survival (ViaLight). Type of series: cell-based, mouse. The note with it: 72-96 h. The procedure:
Fig. 2. PTX-BD4-3 promotes cell survival preferentially through TrkB. (A-D) Neurotrophin receptor-expressing NIH-3T3 cells were incubated in culture medium (CM) alone or in medium plus either the indicated neurotrophins (BDNF, NGF, NT-3) or PTX-BD4-3 or its parent compound LM22A-4 for 72-96 h, after which survival was measured using the ViaLight assay. […] Scale bar: 10 μm. (B) Survival dose-response curves for PTX-BD4-3 and LM22A-4 in 3T3-TrkB cells. ^§P≤0.001 compared to CM alone. (C) Representative images of 3T3-TrkA, 3T3-TrkC and 3T3-p75 cells grown in the presence of CM alone, CM+neurotrophin or CM+PTX-BD4-3. Scale bar: 10 μm. NGF, NT-3 and BDNF served as positive controls for 3T3-TrkA, 3T3-TrkC and 3T3-p75 cells, respectively. (D) PTX-BD4-3 (1000 nM) had no effect on survival of 3T3-TrkA, 3T3-TrkC or 3T3-p75 cells compared to medium alone. *P≤0.05, ***P≤0.001 compared to CM alone. For each determination in B and D, n=10-32 wells derived from four to five independent experiments. Statistical significance was determined by one-way ANOVA with Dunnett's post hoc multiple comparison test. (E,F) […] protein was extracted from human cementoblast-like cell (HCEM) cultures treated with either culture medium alone, BDNF, LM22A-4 or PTX-BD4-3, immunoprecipitated with anti-TrkB antibody and then probed sequentially on western blots with anti-Shc and anti-TrkB antibody. The ratio of Shc to TrkB in treated cultures was normalized and compared to control (CM alone) using Kruskal-Wallis ANOVA followed by Dunn's multiple comparisons test (*P≤0.05, ^§P≤0.001). n=13 independent experiments, and each protein sample was run on duplicate western blots and the normalized values averaged. RLUs, relative light units.
Mouse NIH-3T3 cells expressing TrkA (NIH-3T3-TrkA) were provided by Dr William Mobley (University of California at San Diego, San Diego, CA, USA), and NIH-3T3 cells expressing TrkB (NIH-3T3-TrkB) or TrkC (NIH-3T3-TrkC) were provided by Dr David Kaplan (University of Toronto, Toronto, ON, Canada). Cells were propagated in Dulbecco's modified Eagle medium (DMEM) supplemented with 10% fetal bovine serum (FBS; Invitrogen) and 200-400 µg/ml Geneticin. Cells were seeded into 24-well plates (30,000 cells/well) and cultured in medium consisting of 50% PBS and 50% DMEM without supplements. Following exposure to BDNF (20 ng/ml, 0.7 nM) or 10-1000 nM LM22A-4 or PTX-BD4-3 for 72-96 h, cells were suspended in 50 µl lysis buffer, transferred to white, opaque 96-well culture plates and survival was measured using the ViaLight Assay (Lonza Group, Rockland, ME, USA).

Setting [4] is: male, C57BL/6, mouse, brain, ip, read-out: brain levels.
Where [5] appears, read: male, C57BL/6, mouse, plasma, ip, read-out: plasma level.

≈ marks a conversion by molar mass, not a printed value. Read-outs that look alike come from different tables or passages of the source.

Turning to `O=C(NCCO)c1cc(C(=O)NCCO)cc(C(=O)NCCO)c1` [LM22A-4, N,N′,N′′-tris(2-hydroxyethyl)-1,3,5-benzenetricarboxamide, reference compound], in the series on TrkB, the “Shc recruitment to TrkB (ratio of Shc to TrkB)” value is reported as “promoted Shc recruitment to TrkB”. This compound also yielded a solubility in series [1] of 180 µM (≈ 61.2 µg/mL). Also, in series [2] (setting [4]), the concentration at 1 h turned out to be 0.2 µM and the concentration at 3 h came out at 0.0532 µM. In series [2] (male, C57BL/6, mouse, ip), the Kp at 1 h came out at 0.0268 and the Kp at 3 h worked out at 0.133. The concentration at 3 h in series [2] (setting [5]) turned out to be 2350 µM. In addition, the plasma levels in series [2] is 9193.46. The “Human hepatocyte metabolic stability” value in series [3] was greater than 60 min. Moreover, the “survival of 3T3-TrkB cells” value in the series with 3T3-TrkB cells (1000 nM, representative images) is given as “support the survival”.

Turning to `COCCN(C)C(=O)c1cc(C(=O)N(C)CCOC)cc(C(=O)N(C)CCOC)c1` [PTX-BD4-3, benzene-1,3,5-tricarboxylic acid tris-[(2-methoxy-ethyl)-methyl-amide]], in the series on TrkB, the “Shc recruitment to TrkB (ratio of Shc to TrkB)” value was “promoted Shc recruitment to TrkB”. This compound showed a solubility in series [1] of 200 µM (≈ 84.7 µg/mL). The half-life in series [2] (male, C57BL/6, mouse, brain and plasma, ip, 50 mg/kg, systemic (i.p.) administration) was less than 3 h. Besides, in series [2] (setting [4]), the concentration at 1 h was determined as 0.227 µM and the concentration at 3 h turned out to be 0.0361 µM. In addition, in series [2] (male, C57BL/6, mouse, ip), the Kp at 1 h was found to be 0.0329 and the Kp at 3 h came to 0.271. Moreover, the concentration at 3 h in series [2] (setting [5]) was 361 µM. The compound further registered a plasma levels in series [2] of 10011.16. In addition, the “Human hepatocyte metabolic stability” value in series [3] is recorded as greater than 60 min. Also, the “survival of 3T3-TrkB cells” value in the series with 3T3-TrkB cells (1000 nM, representative images) is reported as “support the survival”. In addition, the “survival of 3T3-TrkB cells” value in the series on 3T3-TrkB cells (serum-free medium, ViaLight, compounds 10-1000 nM dose-response, BDNF 20 ng/ml) is listed as “promoted survival”.
